# Reference: patent US9751867B2 (Syngenta Participations AG, priority 2014, dated 2017)
# Like-named read-outs stand apart in the source and are kept apart here.
# How the values were obtained:
# NK Falkone corn seeds = assay: Corn seed germination under cold stress (15° C.); type: in vivo; conditions: for change in vivo at 50 µM: rate 50 μM; for change in vivo at 250 µM: rate 250 μM
# Protocol: The effect of compounds of Formula (I) on the germination of NK Falkone corn seeds under cold stress was evaluated as follows.
# NK Falkone corn seeds were sorted by size using 2 sieves, one excluding very big seeds and the other with round holes of 8 to 9 mm diameter. The seeds retained by the latter sieve are used for the germination test.
# The corn seeds were placed in 24 well plates (each plate is considered as one experimental unit or replicate). Germination is initiated by the addition of 250 μl of distilled water containing 0.5% DMSO per well as a mean for compound solubilization. 8 replicates (ie, 8 plates) were used for each treatment characterization. Plates were sealed using seal foil (Polyolefin Art. Nr. 900320) from HJ-BIOANALYTIK. All plates were placed horizontally on trolleys in a climatic chamber at 15° C. or 23° C. in complete darkness. The experiment is laid out in a completely randomized design in climatic chamber with 75% Relative Humidity. Foils are pierced, one hole per well using a syringe after 72 hours for experiments performed at 15° C. and after 24 hours for experiments performed at 23° C.
# Germination is followed over time by taking photographs at different time points. Image analysis is done automatically with a macro developed using the Image J software. A dynamic analysis of germination is carried out by fitting a logistic curve to the relationship between % germination and time for each plate (T50 parameter).
# T50 is the time needed for half the seed population to be germinated. A negative value of T50 represents a faster germination rate. The mean of T50 parameters is calculated for the 8 replicates and the kinetic parameter is determined for each germination curve. Data in bold indicate germination enhancing statistically significant differences between treated seeds and control (empty vehicle treated) T50 values (P<0.05) as outlined in Table 7.
# [1] = test system: Orobanche cumana Wallr. seeds; assay: Orobanche seed germination; type: in vivo; conditions: preconditioned O. cumana seeds, 10 days at 20° C. in the dark, N = 5 × 100 seeds, control (0.01% DMSO) 0.75% germination
# Protocol: The effect of the compounds of Formula (I) on the germination of Orobanche cumana Wallr. seeds was evaluated on glass fibre filter paper (GFFP) in petri dishes. Seeds were pre-conditioned at moisture and suitable temperature to become responsive to the specific chemical germination stimulants.
# Test compounds were dissolved in DMSO (10 000 mgl^−1) and stored at room temperature in a desiccator with desiccants. The stock solutions were dissolved with sterile deionised water to the appropriate final test concentration.
# Seeds of O. cumana race ‘F’ were collected from sunflower fields in Manzanilla (Seville, Spain) in 2008 (seed lot IN153) and stored at room temperature. To separate seeds from heavy organic debris, a modified sucrose floatation technique as described by Hartman & Tanimonure (Plant Disease (1991), 75, 494) was applied. Seeds were filled into a separation funnel and stirred in water. When seeds floated to the surface, the water fraction containing heavy debris was discarded. Seeds were re-suspended in 2.5 M sucrose solution (specific gravity of 1.20) and heavy debris was allowed to settle down for 60 minutes. After removing debris, seeds were disinfected in 1% sodium hypochlorite solution and 0.025% (v/v) Tween 20 for 2 minutes. The seeds were decanted onto two layers of cheese cloth, rinsed with sterile deionised water and re-suspended in sterile deionised water. 2 mL of the seed suspension containing approximately 150 to 400 seeds was spread evenly on two layers of sterile glass fiber filter paper disc ([…]) in Petri dishes ( ? 9 cm). After wetting the discs with 3 mL sterile deionised water, petri dishes were sealed with parafilm. Seeds were incubated for 10 days at 20° C. in the dark for seed conditioning. The upper disc with conditioned seeds was briefly dried, transferred to a petri dish lined with a dry GFFP disc, and wetted with 6 mL of the appropriate test solution. The compounds of Formula (I) were tested at concentrations of 0.01, 0.1, and 1 mg/L. The strigolactone analogue GR24 (commercially available as a mixture of isomers) was included as positive control and 0.01% DMSO as negative control. All treatments were tested in five replicates. Seeds were re-incubated at 20° C. in the dark and examined for germination 10 days later.
# The radicles of germinated seeds were stained for 5 minutes with blue ink (PELIKAN #4001, Germany) in 5% acetic acid according to Long et al (Seed Science Research (2008), 18, 125). After staining, seeds were photographed using a camera stand mounted with a digital SLR camera (Canon EOS 5D). Germination of 100 seeds per replicate was evaluated on digital images. Seeds were considered germinated when the radicle protruded from the seed coat.
# [2] = Zea mays, rate 2 μM, 15° C., negative value = faster germination, control 0.5% DMSO in water, read-out: T50 (% vs control)
# [3] = Zea mays, rate 10 μM, 15° C., negative value = faster germination, control 0.5% DMSO in water, read-out: T50 (% vs control)
# [4] = Zea mays, 15° C., negative value = faster germination, control 0.5% DMSO in water, read-out: T50 (% vs control)
# [5] = Zea mays, read-out: T50 (% vs control)
# [6] = Zea mays, rate 1 μM, 15° C., negative value = faster germination, control 0.5% DMSO in water, read-out: T50 (% vs control)
# [7] = Zea mays, rate 5 μM, 15° C., negative value = faster germination, control 0.5% DMSO in water, read-out: T50 (% vs control)
# [8] = Zea mays, rate 25 μM, 15° C., negative value = faster germination, control 0.5% DMSO in water, read-out: T50 (% vs control)
Compound,change in vivo at 2 µM (NK Falkone corn seeds; [2]),change in vivo at 10 µM (NK Falkone corn seeds; [3]),change in vivo at 50 µM (NK Falkone corn seeds; [4]),change in vivo at 250 µM (NK Falkone corn seeds; [4]),Germination (%) ([1]; 0.01 mg/L),Germination (%) ([1]; 0.1 mg/L),other results
"CON1C(=O)C(C)=CC1O/C=C1/C(=O)NC2c3ccccc3CC12 (centres unmarked) [Ib-3, (3E)-3-[(4-methyl-5-oxo-1-methoxy-2H-pyrrol-2-yl)oxymethylene]-1,3a,4,8b-tetrahydroindeno[1,2-b]pyrrol-2-one]",-4%,3.4%,-3.8%,-5.5%,,,
"CC1=CC(O/C=C2/C(=O)NC3c4ccccc4CC23)N(c2ccccc2)C1=O (centres unmarked) [Ib-2, (3E)-3-[(4-methyl-5-oxo-1-phenyl-2H-pyrrol-2-yl)oxymethylene]-1,3a,4,8b-tetrahydroindeno[1,2-b]pyrrol-2-one]",-2.5%,-6.1%,-6.2%,,,,"change in vivo at 0.4 µM (NK Falkone corn seeds; Zea mays, rate 0.4 μM, 15° C., negative value = faster germination, control 0.5% DMSO in water, read-out: T50 (% vs control)): -0.4%"
"CC1=CC(O/C=C2/C(=O)NC3c4ccccc4CC23)N(CC(F)(F)F)C1=O (centres unmarked) [Ib-7, (3E)-3-[(4-methyl-5-oxo-1-(2,2,2-trifluoroethyl)-2H-pyrrol-2-yl)oxymethylene]-1,3a,4,8b-tetrahydroindeno[1,2-b]pyrrol-2-one]",1.5%,-3%,-3.3%,-4.5%,46%,26%,
"CC1=CC(O/C=C2/C(=O)NC3c4ccccc4CC23)N(c2cc(C(F)(F)F)cc(C(F)(F)F)c2)C1=O (centres unmarked) [Ib-13, (3E)-3-[(4-methyl-5-oxo-1-(3,5-bistrifluoromethyl-phenyl)-2H-pyrrol-2-yl)oxymethylene]-1,3a,4,8b-tetrahydroindeno[1,2-b]pyrrol-2-one]",,,,,,,change in vivo at 0.2 µM (NK Falkone corn seeds; [5]): 1%; change in vivo at 1 µM (NK Falkone corn seeds; [5]): -3.6%; change in vivo at 5 µM (NK Falkone corn seeds; [5]): -3.6%; change in vivo at 25 µM (NK Falkone corn seeds; [5]): -2.7%
"CC1=CC(O/C=C2/C(=O)NC3c4ccccc4CC23)N(c2ccc(F)cc2)C1=O (centres unmarked) [Ib-8, (3E)-3-[(4-methyl-5-oxo-1-(4-fluoro-phenyl)-2H-pyrrol-2-yl)oxymethylene]-1,3a,4,8b-tetrahydroindeno[1,2-b]pyrrol-2-one]",,,,,,,"change in vivo at 1 µM (NK Falkone corn seeds; [6]): -2.6%; change in vivo at 5 µM (NK Falkone corn seeds; [7]): -2.8%; change in vivo at 25 µM (NK Falkone corn seeds; [8]): 2%; change in vivo at 125 µM (NK Falkone corn seeds; Zea mays, rate 125 μM, 15° C., negative value = faster germination, control 0.5% DMSO in water, read-out: T50 (% vs control)): -2.3%"
"CC1=C[C@H](O/C=C2/C(=O)O[C@@H]3c4ccccc4C[C@H]23)OC1=O [GR-24, reference compound]",,,,,,,"T50 (% vs control) (NK Falkone corn seeds; rate 0.08 μM, 15° C., negative value = faster germination, control 0.5% DMSO in water): 0.1 % vs control; T50 (% vs control) (NK Falkone corn seeds; rate 0.4 μM, 15° C., negative value = faster germination, control 0.5% DMSO in water): −2 % vs control; T50 (% vs control) (NK Falkone corn seeds; rate 2 μM, 15° C., negative value = faster germination, control 0.5% DMSO in water): −0.6 % vs control; T50 (% vs control) (NK Falkone corn seeds; rate 10 μM, 15° C., negative value = faster germination, control 0.5% DMSO in water): −2.4 % vs control"
"CC1=CC(O/C=C2/C(=O)NC3c4ccccc4CC23)N(c2cccc(F)c2)C1=O (centres unmarked) [Ib-9, (3E)-3-[(4-methyl-5-oxo-1-(3-fluoro-phenyl)-2H-pyrrol-2-yl)oxymethylene]-1,3a,4,8b-tetrahydroindeno[1,2-b]pyrrol-2-one]",,,,,,,"change in vivo at 0.2 µM (NK Falkone corn seeds; Zea mays, rate 0.2 μM, 15° C., negative value = faster germination, control 0.5% DMSO in water, read-out: T50 (% vs control)): -0.8%; change in vivo at 1 µM (NK Falkone corn seeds; [6]): -4.8%; change in vivo at 5 µM (NK Falkone corn seeds; [7]): -5.6%; change in vivo at 25 µM (NK Falkone corn seeds; [8]): -5.2%"
"CC1=CC(O/C=C2/C(=O)N(C(=O)OC(C)(C)C)C3c4ccccc4CC23)N(CC(F)(F)F)C1=O (centres unmarked) [Ia-7, tert-butyl (3E)-3-[(4-methyl-5-oxo-1-(2,2,2-trifluoroethyl)-2H-pyrrol-2-yl)oxymethylene]-2-oxo-4,8b-dihydro-3aH-indeno[1,2-b]pyrrole-1-carboxylate]",,,,,34%,8%,
"CC1=CC(O/C=C2/C(=O)NC3c4ccccc4CC23)N(C2CC2)C1=O (centres unmarked) [Ib-5, (3E)-3-[(4-methyl-5-oxo-1-cyclopropyl-2H-pyrrol-2-yl)oxymethylene]-1,3a,4,8b-tetrahydroindeno[1,2-b]pyrrol-2-one]",-0.8%,-4.3%,-3.9%,-5.8%,68%,73%,
